Consider 5 compounds from patent US6159696A, “Isolated human BMP-4 promoter region” (priority 1996, dated 2000).

For one data set, the system named is BMP-4 promoter 1 region. Kind of data set: ER-mediated luciferase reporter gene modulation, BMP-4 promoter 1 region constructs, transient transfection of U-2 OS cells with pKCRE-ER. The format is cell-based, human. To be noted: for ER-mediated expression of the reporter gene under control of BMP-4 promoter region (in words): BMP-4 promoter region reporter plus ER expression vector; for Fold Induction: ratio of luciferase activity in presence and absence of compound, U-2 OS, human ER. An excerpt:
(§1) Additional fragments of promoter region 1 were generated by progressive exonuclease III digestion (Erase-a-base Kit, Promega), blunt-ended with klenow and deoxynucleotide-triphosphates and subcloned into an endoR SmaI-digested pSLA4 luciferase reporter plasmid.
(§2) The human estrogen receptor (ER)-containing mammalian expression construct pKCRE-ER was constructed in the following way. […] The ER-cDNA was isolated as an endoR SphI/EcoRI fragment comprising nucleotide positions -30 to +1800.
ER-mediated reporter gene modulation by different estrogen analogs of individual promoter region constructs were assayed by transient transfection of osteosarcoma cells (U-2 OS). One day prior to transfection, U-2 OS cells were seeded at a density of 10^5 cells per well (6-well tissue culture plates; Nunc). In this case, the cells were seeded in fenolred-free medium containing 10% (v/v) charcoal-stripped Fetal Calf Serum (csFCS) instead of FCS. DNA was introduced using the lipofection method as described by the supplier (Gibco, BRL). Hereto, the DNA (1 μg receptor construct, 1 μg reporter construct and 250 ng transfection control construct in 250 μL Optimem, Gibco BRL; in different experiments the total amount of transfected DNA was kept constant using pKCRE) was mixed with an equal volume of Lipofectin Reagent (Gibco, BRL) and allowed to stand for 30 min at room temperature. To this was added 500 μL of Optimem (RT) and this mixture was added to the cells, after the latter have been washed with serum-free medium. After a 5 h incubation period at 37° C., the cells were washed with fenolred-free and serum-free medium and incubated overnight in fenolred-free and 10% csFCS medium containing the testcompounds at the concentrations indicated. Prior to the preparation of lysates, cells were washed with PBS (7.6 mM Na2 HPO4 /NAH2 PO4 pH 7.4 and 0.12 M NaCl). Cell extracts were prepared by the addition of 200 μL lysis buffer (0.1 M sodium phosphate buffer pH 7.8 and 0.2% Triton X-100) to the cells and allowed to stand for 5 min at room temperature. Luciferase measurements of cell extracts was performed as described by the supplier (Promega; Luciferase assay system E1501). Hereto, 30 μL of cell extract was added to a […] Optiplate (Packard) and combined with 50 μL of luciferase substrate. The plates were sealed with Topseal film (Packard) and measurements were performed in a Topcount (Packard).

For data set [1], the system named is estrogen response element (ERE)-containing promoter. The data set is described as follows: ER-mediated luciferase reporter gene modulation, estrogen response element promoter construct pERE3 TATA-Luc, transient transfection of U-2 OS cells with pKCRE-ER. The data set is classed as cell-based, human. To be noted: for expression of the reporter gene under the control of a promoter comprising an estrogen responsive element (ERE) (in words): ERE promoter reporter plus ER expression vector. An excerpt: The estrogen response element (ERE)-containing promoter construct was based on pBL-CAT6 (Boshart et al., Gene 110, 129, 1992). It was modified into a luciferase (Luc) reporter construct by exchanging the endoR XhoI/StyI fragment of pBL CAT6 (containing the chloramphenicol acetyl transferase coding information) by the endoR XhoI/StyI fragment of pXP2 (containing the luciferase coding information; Nordeen et al., Biotechniques 6, 454, 1988). A minimal promoter/TATA-element with the sequence 5'-GGGTATATAAT-3'(SEQ ID NO:8) was inserted in between the endoR XbaI and endoR BamHI sites resulting in plasmid pTATA-Luc. A triple estrogen response element (ERE) with the core sequence
was inserted in the endoR HindIII site resulting in plasmid pERE3 TATA-Luc.
The human estrogen receptor (ER)-containing mammalian expression construct pKCRE-ER was constructed in the following way. The human ER-cDNA was obtained from G. Greene (Ben May Laboratory for Cancer Research, University of Chicago); it encodes a glycine instead of valine at amino acid position 400 (G. Greene et al., Science 231, 1150, 1986 and Tora et al., EMBO. J, 8, 1981, 1989). The ER-cDNA was isolated as an endoR SphI/EcoRI fragment comprising nucleotide positions -30 to +1800. This fragment was blunted by T4-DNA polymerase and inserted in the blunted endoR BamHI site of the mammalian expression construct pKCR (O'Hara et al., Proc.Natl.Acad.Sci.USA, 78, 1527, 1981). The latter plasmid was modified in that the last exon region of the rabbit β-globin gene was removed by digestion with endoR EcoRI/BgIII, filling in, and religation (nucleotide position 1122-1196; Van Ooyen et al., Science 206, 337, 1979) and the replacement of pBR322 for pBR327 sequences.
(§3) ER-mediated reporter gene modulation by different estrogen analogs of individual promoter region constructs were assayed by transient transfection of osteosarcoma cells (U-2 OS). One day prior to transfection, U-2 OS cells were seeded at a density of 10^5 cells per well (6-well tissue culture plates; Nunc). In this case, the cells were seeded in fenolred-free medium containing 10% (v/v) charcoal-stripped Fetal Calf Serum (csFCS) instead of FCS. DNA was introduced using the lipofection method as described by the supplier (Gibco, BRL). Hereto, the DNA (1 μg receptor construct, 1 μg reporter construct and 250 ng transfection control construct in 250 μL Optimem, Gibco BRL; in different experiments the total amount of transfected DNA was kept constant using pKCRE) was mixed with an equal volume of Lipofectin Reagent (Gibco, BRL) and allowed to stand for 30 min at room temperature. To this was added 500 μL of Optimem (RT) and this mixture was added to the cells, after the latter have been washed with serum-free medium. […]
In general terms: In a reporter assay the amount or activity of a reporter protein is the signal.

Data set [2] relates to pSLA4 luciferase reporter plasmid. The data set is described as follows: ER-mediated luciferase reporter gene modulation, pSLA4 reporter without BMP-4 promoter region, transient transfection of U-2 OS cells with pKCRE-ER. The data set is classed as cell-based, human.
Text: as §1, §2
as §3, with “temperature.” for “temperature. To this was added 500 μL of Optimem (RT) and this mixture was added to the cells, after the latter have been washed with serum-free medium.”

The test system of the next data set is BMP-4 promoter 2 region. Kind of data set: ER-mediated luciferase reporter gene modulation, BMP-4 promoter 2 region constructs, transient transfection of U-2 OS cells with pKCRE-ER. The data set is classed as cell-based. To be noted: human ER (FIG. 8, FIG. 9).
Text: as §1, §2
as §3, with “temperature.” for “temperature. To this was added 500 μL of Optimem (RT) and this mixture was added to the cells, after the latter have been washed with serum-free medium.”

The mark [3] stands for this setting: promoter region not further specified.

Entries after “also recorded” stand apart in the source; their conditions may differ.

Regarding `CC/C(=C(\c1ccc(O)cc1)c1ccc(OCCN(C)C)cc1)c1ccccc1` [4OH-tamoxifen], the “ER-mediated expression of the reporter gene under control of BMP-4 promoter region (in words)” value (from here on “ER-mediated expression”) with BMP-4 promoter 1 region (setting [3]) is listed as “can also be achieved”.
Regarding `C[C@]12CC[C@@H]3c4ccc(O)cc4CC[C@H]3[C@@H]1CC[C@@H]2O` [Estradiol, 17β-estradiol], the “ER-mediated expression” value is given as “did not show a significant transcriptional effect” in the data set with BMP-4 promoter 1 region (promoter region not further specified in the sentence, listed as 17-β-estradiol) and “did not induce the expression of the reporter gene” in the data set on BMP-4 promoter 1 region (promoter region not further specified in the sentence, listed as 17β-estradiol). Besides, the “Fold Induction” value in data set [1] (u-2 os cells) is recorded as 26 ± 7 fold; in data set [2] (u-2 os cells) it was 0.7 ± 0.1 fold.
On to `CCCCN(C)C(=O)CCCCCCCCCC[C@@H]1Cc2cc(O)ccc2[C@H]2CC[C@]3(C)[C@@H](O)CC[C@H]3[C@H]12` [ICI 164384], for which the “ER-mediated expression” value in the data set with BMP-4 promoter 1 region (setting [3]) is recorded as “considerable expression of the reporter gene; also recorded: can also be achieved”.
Consider `O=C(c1ccc(OCCN2CCCCC2)cc1)c1c(-c2ccc(O)cc2)sc2cc(O)ccc12` [Raloxifene, raloxifene], for which the “ER-mediated expression” value in the data set on BMP-4 promoter 1 region (setting [3]) is “could be induced and/or stimulated; also recorded: induced expression of the reporter gene”. Also, the “Fold Induction” value with BMP-4 promoter 1 region (construct pSLA4.IN+16) came to 3.8 ± 0.6 fold; in the data set with BMP-4 promoter 1 region (construct pSLA4.IN+33), 3.1 ± 0.3 fold; in the data set on BMP-4 promoter 1 region (construct pSLA4.IN-42) it was 1.1 ± 0.2 fold; with BMP-4 promoter 1 region (construct pSLA4.INX), 3.4 ± 0.5 fold; with BMP-4 promoter 1 region (construct pSLA4.1EX (-1166/+173)), 3.7 ± 0.7 fold; in the data set on BMP-4 promoter 1 region (construct pSLA4.1PX (-697/+173)), 3.3 ± 0.5 fold. Also, the “Fold Induction” value in data set [1] (construct pERE3 TATA-Luc, ratio of luciferase activity in presence and absence of compound, U-2 OS, human ER) is reported as 0.7 ± 0.3 fold; in data set [2] (construct pSLA4 (no BMP-4 promoter region), ratio of luciferase activity in presence and absence of compound, U-2 OS, human ER), 1.1 ± 0.2 fold. The “ER-mediated effect on BMP-4 promoter 2 region reporter (in words)” value with BMP-4 promoter 2 region is listed as “also apparent”. Further, in data set [1], the “expression of the reporter gene under the control of a promoter comprising an estrogen responsive element (ERE) (in words)” value is given as “neither of these compounds were able to induce expression of the reporter gene”.
Turning to `CC/C(=C(\c1ccccc1)c1ccc(OCCN(C)C)cc1)c1ccccc1` [tamoxifen], the “ER-mediated expression” value in the data set on BMP-4 promoter 1 region (setting [3]) is “could be induced and/or stimulated; also recorded: induced expression of the reporter gene”. The “expression of the reporter gene under the control of a promoter comprising an estrogen responsive element (ERE) (in words)” value in data set [1] is recorded as “neither of these compounds were able to induce expression of the reporter gene”.
